Results on 2 compounds are retold here after patent US9771430B2, “Method of treating a metabolic disorder induced by obesity in a subject in need thereof by administering MK2/3 inhibitors” (THE TRUSTEES OF COLUMBIA UNIVERSITY IN THE CITY OF NEW YORK, priority 2011, dated 2017).

In one assay the test system is cytosolic free calcium. In words: Calcium mobilization in primary hepatocytes (Fura-2 imaging). Format: cell-based, mouse. On the procedure:
Mouse primary hepatocytes were plated on glass coverslips and loaded with 5 μM Fura-2 acetoxymethyl ester (Molecular Probes) in the presence of 0.025% (w/v) pluronic F127 (Sigma-Aldrich) in Media 199 (Mediatech) for 30 minutes. […] The ratio of fluorescence intensity at the two excitation wavelengths was calculated after subtracting background fluorescence. [Ca2+]I (cytosolic free calcium concentration) was calculated using a Fura-2 calcium imaging calibration kit (Invitrogen). Images were collected and analyzed using the MetaFluor software package (Universal Imaging Corp.). Graphs represent average responses from groups of 30-40 individual cells from representative single experiments. Bar graphs represent average responses (fold over average baseline) from 150-200 cells per condition. All experiments were repeated at least three times with similar results.
(Calcium assays in cells follow changes in intracellular calcium, usually with a dye or a luminescent sensor.)

The subject of a further assay is G6pc and Pck1 mRNA. In words: G6pc and Pck1 mRNA (RT-qPCR) in primary mouse hepatocytes. Format: cell-based. The conditions noted are these: glucagon / forskolin. On the procedure: FIG. 32A-E. Related to FIG. 26—p38. FIG. 32A Mice were fed ad libitum or fasted for 12 h. Liver phospho-p38, total p38, p-MK2, total MK-2, and β-actin were assayed by immunoblot. FIG. 32B WT HCs were serum-depleted overnight and then incubated for 5 h with 100 nm glucagon in serum-free media with or without SB202190; or glucagon was added to HCs from P38a^fl/fl mice treated with adeno-LacZ (control) or adeno-Cre. RNA was assayed for G6pc and Pck1 mRNA (*P<0.05; mean±S.E.M.). FIG. 32C HCs from fasting WT and Camk2g^−/− mice were assayed for p-p38, total p38, and β-actin. FIG. 32D WT mice were injected i.p. with 12.5 mg kg^−1 body weight of p38 inhibitor (SB202190) or vehicle control. 12 h later, the mice were injected with an additional dose of SB202190 and fasted overnight. The livers were assayed for nuclear FoxO1, nucleophosmin, p-MK2, total MK-2, and β-actin. The correlation between nuclear FoxO1 and p-MK2 band intensities is shown in the graph. FIG. 32E Adeno-GFP-FoxO1-transduced HCs were serum-depleted overnight, and then incubated for 5 h in serum-free media with SB202190 or vehicle (Veh) control. FoxO1 localization was assessed by indirect immunofluorescence (Bar, 10 μm; *P<0.05; mean±S.E.M.).
FIGS. 53A-B. MK-2 regulates hepatic FoxO1 subcellular localization and hepatic G6Pc and Pck1. FIG. 53A. Adeno-GFP-FoxO1-transduced HCs were serum-depleted overnight, and then incubated for 30 min in serum-free media with 2 uM MK-2 inhibitor or vehicle (Veh) control. FoxO1 localization was assessed by indirect immunofluorescence (Bar, […]; *P<0.005; mean±S.E.M.). FIG. 53B WT HCs were serum-depleted overnight and then incubated for 5 h with 100 nm glucagon in serum-free media with or without MK-2 inhibitor. RNA was assayed for G6pc and Pck1 mRNA (*P<0.005; mean±S.E.M.). MK-2 Inhibitor is from Calbiochem (cat#475864): 2-(2-Quinolin-3-ylpyridin-4-yl)-1,5,6,7-tetrahydro-4H-pyrrolo-[3,2-c]pyridin-4-one.
FIG. 69. MK-2 inhibitor suppresses forskolin-induced Pck1 and G6Pc induction in primary hepatocytes. Primary hepatocytes from WT mice were serum-depleted overnight and then pre-treated with 300 nM MK-2 inhibitor (compound 28) or vehicle for 1 h. Cells were then treated with 2 μM forskolin in serum-free media with or without the inhibitor for 4 h. RNA was assayed for G6pc and Pck1 mRNA by RT-qPCR. *, P<0.0001.
Primary mouse HCs were isolated from 8- to 12-week-old mice as described previously (Matsumoto et al., 2002). For most experiments, the HCs were serum-depleted overnight by incubation in medium containing 0.5% fetal calf serum and were then incubated for 5 h in serum-free media, with individual treatments noted in the figure legends. HCs were transduced with adenoviral constructs 12 h after plating, and experiments were conducted 24 h after transduction. Transfections with WT, 7A- and 9A-Foxo1 were carried out using jetPEI™-hepatocyte DNA transfection reagent (Polyplus-transfection, Inc.) according to manufacturer's instructions.
Immunoblot and RT-qPCR assays were performed as previously described (Timmins et al., 2009). Total RNA was extracted from HCs using the RNeasy kit (Qiagen). cDNA was synthesized from 2 μg total RNA using oligo (dT) and Superscript II (Invitrogen). Nuclear extraction from liver was performed using the Nuclear Extraction Kit from Panomics according to the manufacturer's instructions. […] Whether their origin is alternative splicing or post-translational modification remains to be determined.
(Quantitative PCR measures a nucleic acid by following its amplification.)

Assay [1] in a line: Fasting glucose in C57BL/6J mice treated with Xestospongin C. The class given is in vivo, mouse. From the text: FIGS. 49A-S. The role of IP3R in forskolin/glucagon-induced G6Pase/PEPCK in cultured hepatocytes and in fasting blood glucose in vivo. FIG. 49 A,B. FSK-Induced G6Pase and PEPCK is Calcium-Dependent. FIG. 49C-D. IP3R Activity is Required for Forskolin- and Glucagon-Induced G6Pase and PEPCK (FAO rat hepatocyte cell line). FIG. 49E-F. IP3R Activity is Required for Forskolin-Induced G6Pase and PEPCK (primary murine hepatocytes). FIG. 49G-H. IP3R1 Anti-Sense Oligonucleotide Suppresses Forskolin-Induced G6Pase and PEPCK (primary murine hepatocytes). FIG. 49I. Forskolin Activates IP3R Activity in FAO Hepatocytes (Inositol/ATP-Induced Calcium Release Assay). FIG. 49J. The PKA Inhibitor H89 Suppresses Forskolin-Induced IP3R Activation. FIG. 49K-L. IP3R Activity is Required for Forskolin-Induced PGC1a. FIG. 49M-N. Calcineurin Inhibitory Peptide Suppresses Forskolin-Induced G6Pase and PEPCK. FIG. 49O. IP3R Activity is Required for Forskolin-Induced Calcineurin Activation. FIG. 49P-Q. IP3R Activity is Required for Forskolin-Induced TORC2 Dephosphorylation and Nuclear Localization. FIG. 49R. TORC2 Transduction Partially Restores Forskolin-Induced G6Pase in IP3R-Inhibited Hepatocytes. FIG. 49S. Xestospongin C Treatment Reduces Fasting Glucose Levels in C57BL/6J Mice.

Take “glucagon: hormone used to stimulate hepatocytes and mice”: in the assay on cytosolic free calcium (exposure of primary hepatocytes to glucagon), the cellular free calcium result is “rapid increase”.

`C1CCC[C@H]2CCCN3CC[C@@H](CCCCCC[C@@H]4CCCN5CC[C@@H](CC1)O[C@@H]45)O[C@@H]23` [Xestospongin C]: the “induction of the gluconeogenic program” value in the assay on G6pc and Pck1 mRNA is “blocked”. Further, in the assay with cytosolic free calcium (co-/pre-treatment with inhibitor), the “cytosolic calcium mobilization in response to glucagon (and forskolin)” value is listed as “disrupted”. In addition, the “Fasting Glucose Levels” value in assay [1] is “Reduces”.
